Measured values from ChEMBL document CHEMBL4325859, “Research advances on anticancer activities of matrine and its derivatives: An updated overview” (Eur J Med Chem, 2019).
≈ marks a conversion by molar mass, not a printed value.

How the values were obtained:
HepG2 [1] = test: Induction of apoptosis in human HepG2 cells at 1 mg/ml by Annexin V-FITC/propidium iodide staining based flow cytometry (reference value: 0.14%); assay type: functional
HT-29 [2] = test: Growth inhibition of human HT-29 cells at 8 ml/L after 48 hrs by MTT assay relative to control; assay type: functional
SAOS-2 = test: Growth inhibition of human Saos2 cells at 0.8 mg/ml after 48 hrs by MTT assay relative to control; assay type: functional; conditions: SAOS-2, 48 h, read-out: GI
HT-29 [3] = test: Growth inhibition of human HT-29 cells at 16 ml/L after 48 hrs by MTT assay relative to control; assay type: functional
HT-29 [4] = test: Synergistic growth inhibition of human HT-29 cells at 2 mg/ml cotreated with 10 ug/ml irinotecan by MTT assay relative to control; assay type: functional
RPMI-8226 [5] = test: Growth inhibition of human RPMI8226 cells after 24 hrs; assay type: functional, cell-based; conditions: RPMI-8226, 24 h
HepG2 [6] = test: Antiproliferative activity against human HepG2 cells after 48 hrs by MTT assay; assay type: functional, cell-based; conditions: HepG2, 48 h
U-266 [7] = test: Antiproliferative activity against human U266 cells after 24 hrs by MTT assay; assay type: functional, cell-based; conditions: U-266, 24 h
HT-29 [8] = test: Synergistic growth inhibition of human HT-29 cells at 1 mg/ml cotreated with 5 ug/ml irinotecan by MTT assay relative to control; assay type: functional
BXPC-3 = test: Induction of apoptosis in human BxPC3 cells at 0.25 mg/ml by flow cytometry (reference value: 2.81%); assay type: functional
MM1.S = test: Growth inhibition of human MM1S cells at […] after 24 hrs relative to control; assay type: functional; conditions: read-out: GI
M21 [9] = test: Induction of apoptosis in human M21 cells at 0.2 mg/ml after 48 hrs by Annexin V-FITC/propidium iodide staining based flow cytometry relative to control; assay type: functional
D341 cell line = test: Growth inhibition of human D341 cells at 1 mg/ml after 72 hrs by CCK8 assay relative to control; assay type: functional; conditions: D341, 72 h, read-out: GI
HT-29 [10] = test: Antiproliferative activity against human HT-29 cells by MTT assay; assay type: functional, cell-based
HT-29 [11] = test: Growth inhibition of human HT-29 cells at 0.5 mg/ml by MTT assay relative to control; assay type: functional; conditions: read-out: GI
[12] = Antiproliferative activity against human 95-D cells at 2 g/L after 48 hrs by MTT assay relative to control; assay type: functional
SiHa = test: Antiproliferative activity against human SiHa cells after 48 hrs by CCK8 assay; assay type: functional, cell-based
RPMI-8226 [13] = test: Antiproliferative activity against human RPMI8226 cells after 48 hrs by MTT assay; assay type: functional, cell-based; conditions: RPMI-8226, 48 h
U-266 [14] = test: Antiproliferative activity against human U266 cells after 48 hrs by MTT assay; assay type: functional, cell-based; conditions: U-266, 48 h
HT-29 [15] = test: Synergistic growth inhibition of human HT-29 cells at 0.5 mg/ml cotreated with 2.5 ug/ml irinotecan by MTT assay relative to control; assay type: functional
U2OS [16] = test: Growth inhibition of human U2OS cells after 48 hrs by MTT assay; assay type: functional, cell-based
CCRF-CEM = test: Induction of apoptosis in human CCRF-CEM cells at antiproliferative IC50 after 72 hrs by Annexin V/propidium iodide staining based assay (reference value: 0.8%); assay type: functional
C-33-A = test: Induction of apoptosis in human C33A cells at 50 ug/ml after 48 hrs by Annexin V-FITC/propidium iodide staining based flow cytometry relative to control; assay type: functional
HT-29 [17] = test: Growth inhibition of human HT-29 cells at 8 ml/L after 24 hrs by MTT assay relative to control; assay type: functional
HL-60 = test: Antiproliferative activity against human HL60 cells after 24 hrs by MTT assay; assay type: functional, cell-based; conditions: HL-60, 24 h
[18] = Growth inhibition of human GRC1 cells at 1.5 g/L after 96 hrs by MTT assay relative to control; assay type: functional; conditions: read-out: GI
SW480 = test: Antitumor activity against human SW480 cells xenografted in Balb/c mouse assessed as tumor growth inhibition at 30 mg/kg, ip everyday relative to control; assay type: functional; conditions: read-out: TGI
RD = test: Induction of apoptosis in human RD cells at 1.5 mg/ml after 24 hrs by Annexin V-FITC/propidium iodide staining based flow cytometry relative to control; assay type: functional
RPMI-8226 [19] = test: Growth inhibition of human RPMI8226 cells at 1000 mg/L after 48 hrs by MTT assay relative to control; assay type: functional; conditions: RPMI-8226, 48 h, read-out: GI
M21 [20] = test: Induction of apoptosis in human M21 cells at 0.4 mg/ml after 48 hrs by Annexin V-FITC/propidium iodide staining based flow cytometry relative to control; assay type: functional
UMR108 [21] = test: Growth inhibition of rat UMR108 cells assessed as cell proliferation at 1.5 mg/ml after 24 hrs by MTT assay (reference value: 0.405 +/- 0.007%); assay type: functional; conditions: UMR108, 24 h, read-out: Activity
NIH3T3 = test: Antiproliferative activity against mouse NIH/3T3 cells after 72 hrs by MTT assay; assay type: cell-based; conditions: NIH3T3, 72 h
HT-29 [22] = test: Synergistic growth inhibition of human HT-29 cells at 0.25 mg/ml cotreated with 1.25 ug/ml irinotecan by MTT assay relative to control; assay type: functional
KYSE-150 cell line [23] = test: Antiproliferative activity against human KYSE-150 cells assessed as cell viability at 1 mg/ml after 24 hrs by MTT assay relative to control; assay type: functional; conditions: KYSE-150, 24 h, read-out: Activity
U2OS [24] = test: Growth inhibition of human U2OS cells at 0.8 mg/ml after 48 hrs by MTT assay relative to control; assay type: functional; conditions: read-out: GI
HT-29 [25] = test: Growth inhibition of human HT-29 cells at 32 ml/L after 24 hrs by MTT assay relative to control; assay type: functional
A549 = test: Antiproliferative activity against human A549 cells at 2 g/L after 48 hrs by MTT assay relative to control; assay type: functional
KYSE-150 cell line [26] = test: Antiproliferative activity against human KYSE-150 cells after 24 hrs by MTT assay; assay type: functional, cell-based; conditions: KYSE-150, 24 h
RPMI-8226 [27] = test: Growth inhibition of human RPMI8226 cells at […] after 24 hrs relative to control; assay type: functional; conditions: RPMI-8226, 24 h, read-out: GI
UMR108 [28] = test: Growth inhibition of rat UMR108 cells assessed as cell proliferation at 1 mg/ml after 24 hrs by MTT assay (reference value: 0.405 +/- 0.007%); assay type: functional; conditions: UMR108, 24 h, read-out: Activity
SMMC-7721 = test: Antiproliferative activity against human SMMC7721 cells at 100 ug/ml after 72 hrs by MTT assay relative to control; assay type: functional
PANC-1 = test: Antiproliferative activity against human PANC1 cells after 72 hrs by MTT assay; assay type: functional, cell-based; conditions: PANC-1, 72 h
KYSE-150 cell line [29] = test: Antiproliferative activity against human KYSE-150 cells assessed as cell viability at 0.5 mg/ml after 24 hrs by MTT assay relative to control; assay type: functional; conditions: KYSE-150, 24 h, read-out: Activity
[30] = Growth inhibition of human GRC1 cells at 1.5 g/L after 72 hrs by MTT assay relative to control; assay type: functional; conditions: read-out: GI

For `O=C1CCC[C@@H]2[C@H]3CCCN4CCC[C@@H](CN12)[C@@H]34` [MATRINE], the Activity (HepG2 [1]) was 34.36%, the “growth inhibition (GI)” value (HT-29 [2]) was 68.29% and the inhibition of growth at 800 µg/mL (SAOS-2) was 10%. For the same molecule, the “growth inhibition (GI)” value (HT-29 [3]) was 75.75%, the “growth inhibition (GI)” value (HT-29 [4]) was 95.29% and the IC50 (RPMI-8226 [5]) was 4.35 mM. The IC50 (HepG2 [6]) was 3.22 mM, the IC50 (U-266 [7]) was 2180 µg/mL (≈ 8.78 mM) and the “growth inhibition (GI)” value (HT-29 [8]) was 87.61%. For the same molecule, the Activity (BXPC-3) was 9.9%, the inhibition of growth at 2 g/mL (MM1.S) was 73% and the Activity (M21 [9]) was 24.1%. It also gave an inhibition of growth at 1000 µg/mL (D341 cell line) of 28.3%, an IC50 (HT-29 [10]) of 0.0286 mM and an inhibition of growth at 500 µg/mL (HT-29 [11]) of 26.9%. The Activity [12] was 20%, the IC50 (SiHa) was 5.76 mM and the IC50 (RPMI-8226 [13]) was 1640 µg/mL (≈ 6.6 mM). For the same molecule, the IC50 (U-266 [14]) was 1580 µg/mL (≈ 6.36 mM), the “growth inhibition (GI)” value (HT-29 [15]) was 57.25% and the IC50 (U2OS [16]) was 7.25 mM. The Activity (CCRF-CEM) was 5.4%, the Activity (C-33-A) was 15.37% and the “growth inhibition (GI)” value (HT-29 [17]) was 45.96%. The IC50 (HL-60) was 0.00366 mM, the inhibition of growth at 1500 µg/mL [18] was 60.2% and the inhibition in vivo at 30 mg/kg (SW480) was 13.7%. It also gave an Activity (RD) of 40.1%, an inhibition of growth at 1000 µg/mL (RPMI-8226 [19]) of 30.4% and an Activity (M21 [20]) of 34.8%. For the same molecule, the growth at 1500 µg/mL (UMR108 [21]) was 0.245%, the IC50 (NIH3T3) was greater than 8.06 mM and the “growth inhibition (GI)” value (HT-29 [22]) was 31.08%. The viability at 1000 µg/mL (KYSE-150 cell line [23]) was 69.8%, the inhibition of growth at 800 µg/mL (U2OS [24]) was 10% and the “growth inhibition (GI)” value (HT-29 [25]) was 71.62%. For the same molecule, the Activity (A549) was 20%, the IC50 (KYSE-150 cell line [26]) was 7.82 mM and the inhibition of growth at 2 g/mL (RPMI-8226 [27]) was 74%. The growth at 1000 µg/mL (UMR108 [28]) was 0.298%, the Activity (SMMC-7721) was 55.1% and the IC50 (PANC-1) was 3.66 mM. It also gave a viability at 500 µg/mL (KYSE-150 cell line [29]) of 82.2% and an inhibition of growth at 1500 µg/mL [30] of 34%.
